The text below walks through data of US7696313B2, “Prodrug compounds with isoleucine” (priority 2000, dated 2010).

Structures are written as SMILES. Like-named read-outs stand apart in the source and are kept apart here.

Data set [1] is described as follows: Metabolism and clearance in normal mice (plasma and urine, LC MS/MS). It counts as in vivo. As for the experimental part:
The metabolism and clearance of Suc-Ile-Ala-Leu-Dox was studied in normal mice. The mice were administered Suc-Ile-Ala-Leu-Dox at a single intravenous bolus dose of 117 mg/kg. Plasma samples were obtained at 1 and 4 hours. Plasma samples of 100 μl were transferred to Eppendorf tubes (1.5 mL) and an internal standard of daunorubicin (20 μL at 0.5 mg/ml) was added together with acetonitrile (400 μl). The tubes were capped and briefly vortexed followed by centrifugation at 14,000 rpm. 420 μl from each tube was removed and dried in vacuo. Each sample was reconstituted in 65 μl ammonium formate containing acetonitrile (20%) prior to analysis by reverse phase liquid chromatography in combination with tandem mass spectrometry (LC MS/MS).
Urine was collected at 2 and 24 hours post administration from pairs of mice in metabolic cages. Urine samples were diluted with ammonium formate containing acetonitrile (20%) to give a target analyte concentration within the practical range of the LC MS/MS assay. 30 μl of each diluted sample was placed in an Eppendorf tube (1.5 ml) and an internal standard of daunorubicin (20 μL at 0.5 mg/ml) was added together with 50 μl of ammonium formate containing acetonitrile (20%). Each sample was then analyzed by LC MS/MS.
An Agilent HP 1100. HPLC with DAD detector and Chemstation software was coupled to a PE Sciex API 365 mass spectrometer with an electrospray ion source.
HPLC was performed on a TSK-Gel Super ODS, […], 4.6×50 mm (TosoHaas) reversed phase column equipped with a […] C18 guard disc (Higgins Analytical) and stainless steel frit (Upchurch Scientific). Chromatography was performed at room temperature. The flow rate was 0.5 ml/min. Injection volume was 50 μl. Gradient elution was performed using a mobile phase of 20 mM ammonium formate with increasing amounts of acetonitrile. The API 365 was operated at 365° C. in a multiple reaction monitoring mode, set to monitor specific analyte parent-daughter ion pairs. Integration of chromatograms was performed by MacQuan software (PE Sciex) and quantitation of each analyte obtained by comparison to previously obtained calibration curves. Daunorubicin was used as an internal standard in all cases.
Percent of administered dose—plasma volume estimated at 40% of blood volume, which was calculated at 7% of animal's body weight.
Plasma samples were obtained at 1 and 4 hours from separate mice. Urine was collected at 2 and 24 hours post administration from pairs of mice in metabolic cages. The plasma and urine samples were prepared and analyzed as described in Example 4.

Assay in data set [2]: as above
It counts as in vivo. This is another data set of the same source.

A short description of data set [3]: Initial single dose Maximum Tolerated Dose (MTD) study, 28 days. The conditions noted are these: mouse, in vivo, intravenous. Type of data set: in vivo, mice. As for the experimental part:
In our initial single dose Maximum Tolerated Dose (MTD) study, groups of five normal mice were administered intravenous bolus doses of Suc-Ile-Ala-Leu-Dox. The mice were observed daily for 28 days and body weights measured twice weekly.
The mice were observed daily for 28 days and body weights measured twice weekly.
In the single dose Maximum Tolerated Dose (MTD) studies, groups of normal mice were administered intravenous bolus doses of the prodrug. The mice were observed daily for 28 days and body weights measured twice weekly. The MTD was estimated to be equal to the highest dose that produced no death in mice after 28 days.

The nature of data set [4]: Repeat-dose tolerance (RD-MTD) in tumor bearing mice. It counts as in vivo. Conditions: mouse, in vivo, corrected results. As for the experimental part: In repeat-dose studies in tumor bearing mice, groups of ten mice were dosed with various amounts of prodrug for a total of five doses at either five day or 1 week intervals.
Setting [5] is: after Suc-βAla-Ile-Ala-Leu-Dox 117 mg/kg single intravenous bolus.
The mark [6] stands for this setting: after Suc-Ile-Ala-Leu-Dox 117 mg/kg single intravenous bolus.

Turning to `COc1cccc2c1C(=O)c1c(O)c3c(c(O)c1C2=O)C[C@@](O)(C(=O)CO)C[C@@H]3O[C@H]1C[C@H](NC(=O)[C@H](CC(C)C)NC(=O)[C@H](C)N)[C@H](O)[C@H](C)O1` [Ala-Leu-Dox], in data set [1] (mouse, in vivo), the “Plasma 1 hr, percent of administered dose” value is 0.00 % of administered dose; the “Plasma 4 hr, percent of administered dose” value is given as 0.00 % of administered dose; the “Urine 24 hr, percent of administered dose” value was 0.00 % of administered dose.

On to `COc1cccc2c1C(=O)c1c(O)c3c(c(O)c1C2=O)C[C@@](O)(C(=O)CO)C[C@@H]3O[C@H]1C[C@H](NC(=O)[C@@H](N)CC(C)C)[C@H](O)[C@H](C)O1` [Leu-Dox], for which the “Plasma 1 hr, percent of administered dose” value in data set [2] (setting [5]) was 0.04 % of administered dose; in data set [1] (setting [6]), 0.02 % of administered dose. For the same compound, the “Plasma 4 hr, percent of administered dose” value in data set [2] (setting [5]) and in data set [1] (setting [6]) was 0.00 % of administered dose each time. Besides, the “Urine 2 hr, percent of administered dose” value is on record as 4.69 % of administered dose in data set [2] (after Suc-βAla-Ile-Ala-Leu-Dox 117 mg/kg, collected 0-2 hours) and 1.17 % of administered dose in data set [1] (after Suc-Ile-Ala-Leu-Dox 117 mg/kg, collected 0-2 hours). The “Urine 24 hr, percent of administered dose” value is on record as 2.29 % of administered dose in data set [2] (after Suc-βAla-Ile-Ala-Leu-Dox 117 mg/kg, collected 2-24 hours) and 2.25 % of administered dose in data set [1] (after Suc-Ile-Ala-Leu-Dox 117 mg/kg, collected 2-24 hours).

Turning to `COc1cccc2c1C(=O)c1c(O)c3c(c(O)c1C2=O)C[C@@](O)(C(=O)CO)C[C@@H]3O[C@H]1C[C@H](NC(=O)[C@H](CC(C)C)NC(=O)[C@H](C)NC(=O)[C@H](CC(C)C)NC(=O)CCC(=O)O)[C@H](O)[C@H](C)O1` [Suc-Leu-Ala-Leu-Dox, reference compound], the MTD at 28 days in data set [3] (28 days, uncorrected doses, read-out: SD MTD (mg/kg), Table 7) is > 117 mg/kg; in data set [3] (SD MTD, doxorubicin equivalent dose, Table 8, value in parentheses, corrected results), 35 mg/kg; in data set [3] (SD MTD, molar equivalent dose of doxorubicin, Table 7, value in parentheses, uncorrected), > 70 mg/kg; in data set [3] (corrected results, read-out: SD MTD (mg/kg), Table 8), 59 mg/kg. The MTD at 60 days in data set [4] (Repeat Dose MTD, doxorubicin equivalent dose, Table 8, value in parentheses) amounted to 31 mg/kg; in data set [4] (Q 5D × 5 or Q 7D × 5, read-out: Repeat Dose MTD (mg/kg), Table 8) it was 52 mg/kg. In addition, the “Major Plasma Metabolite, Table 7” value (mouse, in vivo) is given as “Leu-Dox”. The “Major Plasma Metabolite, Table 8” value (mouse, in vivo) was “Leu-Dox”.

On to `COc1cccc2c1C(=O)c1c(O)c3c(c(O)c1C2=O)C[C@@](O)(C(=O)CO)C[C@@H]3O[C@H]1C[C@H](NC(=O)[C@H](CC(C)C)NC(=O)[C@H](C)NC(=O)[C@H](CC(C)C)NC(=O)CCNC(=O)CCC(=O)O)[C@H](O)[C@H](C)O1` [Suc-βAla-Leu-Ala-Leu-Dox, reference compound], for which, under “mice”, the “Major Plasma Metabolite, Table 7” value was “Ala-Leu-Dox” and the “Major Plasma Metabolite, Table 8” value is given as “Ala-Leu-Dox”.
